The conditions of this series: for aqueous solubility: pH 6.8.

Converted amounts (≈) assume the structure as drawn. A value given as a limit tells only on which side of the number the result lay.

As to `Cc1ccc(-c2cc(NC(=O)CN3CCOCC3)on2)cc1`, the MDR1-MDCK efflux ratio was found to be 0.561; the intrinsic clearance, human liver microsomes is no more than 4.74 mL/min/kg; the intrinsic clearance, rat liver microsomes is 71 mL/min/kg; the aqueous solubility (usually the concentration that dissolves in the medium under given conditions) was determined as 52.1 µg/mL (≈ 173 µM).
For `CS(=O)(=O)N1CC(c2n[nH]c3ncccc23)C1` the same measures were 1.41, no more than 4.74 mL/min/kg, no more than 10.7 mL/min/kg and 33.3 µg/mL (≈ 132 µM).
As to `Cc1nnc(NC(=O)c2nn(-c3ccc(F)cc3)c3c2CCCC3)s1`, the intrinsic clearance, human liver microsomes was 42 mL/min/kg; the intrinsic clearance, rat liver microsomes stood at 227 mL/min/kg; the aqueous solubility was found to be 2.9 µg/mL (≈ 8.11 µM).
With `COc1ccc(-c2nnc(-c3ccccc3)o2)cc1OC`, the MDR1-MDCK efflux ratio amounted to 0.227; the intrinsic clearance, human liver microsomes turned out to be 49.4 mL/min/kg; the intrinsic clearance, rat liver microsomes was 50.8 mL/min/kg; the aqueous solubility came to 4.34 µg/mL (≈ 15.4 µM).
Consider `CN(C(=O)c1cc(N2CCNC2=O)ccc1F)C1CCC(N)CC1` (configuration not stated), for which the MDR1-MDCK efflux ratio was found to be 1.02; the fraction unbound, human plasma came to 0.674; the intrinsic clearance, human liver microsomes is no more than 4.74 mL/min/kg.
For the compound `CCN(CC)C(=O)N1CCCN(C(=O)N(CC)CC)CC1`, the MDR1-MDCK efflux ratio was determined as 4.51; the intrinsic clearance, human liver microsomes turned out to be 68.5 mL/min/kg; the intrinsic clearance, rat liver microsomes came out at 698 mL/min/kg; the aqueous solubility turned out to be 48.6 µg/mL (≈ 163 µM).
Taken in the same sequence, the figures for `CC(C)(C)NC(=O)NCCn1nc2c(cc1=O)CCCC2` were 67, 12.1 mL/min/kg, 105 mL/min/kg and 47.5 µg/mL (≈ 162 µM).
For the compound `CCCC1(CNC(=O)Cn2ccc(=O)cc2)CCC1`, the MDR1-MDCK efflux ratio came to 14.3; the intrinsic clearance, human liver microsomes was no more than 4.74 mL/min/kg; the intrinsic clearance, rat liver microsomes amounted to 14.6 mL/min/kg.
Take `COC(=O)N[C@H](C)CNc1nccc(-c2cn(C(C)C)nc2-c2cc(Cl)cc(NS(C)(=O)=O)c2F)n1`: the MDR1-MDCK efflux ratio was determined as 129; the intrinsic clearance, human liver microsomes was determined as 14.7 mL/min/kg; the intrinsic clearance, rat liver microsomes was 66.5 mL/min/kg.
Turning to `Cc1ccccc1-c1nc(Cn2ccnc2C(C)C)c(C)o1`, the MDR1-MDCK efflux ratio is 0.732; the intrinsic clearance, human liver microsomes is 310 mL/min/kg; the intrinsic clearance, rat liver microsomes is 2720 mL/min/kg; the aqueous solubility came out at 49 µg/mL (≈ 166 µM).
`Cc1cc(CN2CCC(N(C)c3ncc(Cl)cn3)CC2)on1`: the MDR1-MDCK efflux ratio came out at 0.58; the intrinsic clearance, human liver microsomes is 16 mL/min/kg; the intrinsic clearance, rat liver microsomes was 127 mL/min/kg.
As to `Cc1cc(Nc2nc(N[C@@H](C)c3ncc(F)cn3)ncc2Cl)n[nH]1`, the MDR1-MDCK efflux ratio was determined as 10.5; the intrinsic clearance, human liver microsomes was determined as 8.47 mL/min/kg; the intrinsic clearance, rat liver microsomes is 46.3 mL/min/kg.
As for `Nc1cnc(Cc2ccc(F)cc2)nc1`, the MDR1-MDCK efflux ratio came out at 0.67; the intrinsic clearance, human liver microsomes is no more than 4.74 mL/min/kg; the intrinsic clearance, rat liver microsomes was 15.4 mL/min/kg; the aqueous solubility came to 38.2 µg/mL (≈ 188 µM).
As to `C[C@H](NC(=O)CCC(F)(F)F)C(=O)N[C@@H]1C(=O)N(CCO)c2ncccc2-c2ccccc21`, the MDR1-MDCK efflux ratio was found to be 24; the intrinsic clearance, human liver microsomes was no more than 4.74 mL/min/kg; the intrinsic clearance, rat liver microsomes came to 10.8 mL/min/kg.
Turning to `CNC(=O)c1cc(-c2ccccc2)no1`, the aqueous solubility was 37 µg/mL (≈ 183 µM).
`CNc1cc(CC2CCNCC2)ncn1`: the aqueous solubility came out at 30.6 µg/mL (≈ 148 µM).
For the compound `Cc1nc(NC(c2nccn2C)C2CC2)c2sccc2n1` (configuration not stated), the MDR1-MDCK efflux ratio turned out to be 13.9; the intrinsic clearance, human liver microsomes came out at 43.7 mL/min/kg; the intrinsic clearance, rat liver microsomes is 319 mL/min/kg; the aqueous solubility turned out to be 51.3 µg/mL (≈ 171 µM).
For `c1ccc2nc(OC3CCNCC3)cnc2c1`, the intrinsic clearance, human liver microsomes was no more than 4.74 mL/min/kg and the intrinsic clearance, rat liver microsomes worked out at 183 mL/min/kg.
For `Cc1cc(Nc2ccc(F)cn2)cc(C2CCN(C(=O)CCn3ncc4ccccc43)C2)n1` (configuration not stated), the MDR1-MDCK efflux ratio was determined as 60; the intrinsic clearance, human liver microsomes came out at 345 mL/min/kg; the intrinsic clearance, rat liver microsomes came out at 2300 mL/min/kg.
In the case of `CN(CC(=O)Nc1ccncc1)C1CCCC1`, the MDR1-MDCK efflux ratio came to 0.484; the intrinsic clearance, human liver microsomes was no more than 4.74 mL/min/kg; the intrinsic clearance, rat liver microsomes is 393 mL/min/kg; the aqueous solubility turned out to be 40.8 µg/mL (≈ 175 µM).
As to `Cc1ccc(Cn2nccc2NC(=O)c2ccncc2)o1`, the MDR1-MDCK efflux ratio was determined as 2.28; the intrinsic clearance, human liver microsomes stood at 7.52 mL/min/kg; the intrinsic clearance, rat liver microsomes was 214 mL/min/kg; the aqueous solubility was 33.6 µg/mL (≈ 119 µM).
Consider `Cc1cc(NC(=O)N2Cc3cc4c(cc3C3(CCCC3)C2)OCCO4)no1`, for which the MDR1-MDCK efflux ratio was 0.72 and the aqueous solubility is 0.3 µg/mL (≈ 0.812 µM).
`Cc1cccc(NC(=O)CN2C(=O)N(C)C3(CCCCC3)C2=O)c1C` showed an intrinsic clearance, human liver microsomes of 506 mL/min/kg; an intrinsic clearance, rat liver microsomes of 2640 mL/min/kg; an aqueous solubility of 59.8 µg/mL (≈ 174 µM).
Regarding `Cc1ncc(-c2ccc(C)c(S(=O)(=O)NCc3cnn(C)c3C)c2)o1`, the MDR1-MDCK efflux ratio was determined as 36.5; the intrinsic clearance, human liver microsomes was found to be 177 mL/min/kg; the intrinsic clearance, rat liver microsomes stood at 1370 mL/min/kg.
As for `CCc1cnc(NCc2ccc(CN3CCCC3)cc2)nc1`, the MDR1-MDCK efflux ratio was determined as 1.06; the intrinsic clearance, human liver microsomes was no more than 4.74 mL/min/kg; the intrinsic clearance, rat liver microsomes worked out at 291 mL/min/kg; the aqueous solubility came to 31.8 µg/mL (≈ 107 µM).
Turning to `O=C(CCCOc1ccccc1)N1CCCC1`, the MDR1-MDCK efflux ratio is 0.631; the intrinsic clearance, human liver microsomes was 10.4 mL/min/kg; the intrinsic clearance, rat liver microsomes stood at 295 mL/min/kg; the aqueous solubility worked out at 30.5 µg/mL (≈ 131 µM).
Taken in the same sequence, the figures for `Cc1noc(C(C)C)c1C(=O)Nc1ccccn1` were 0.524, 28.4 mL/min/kg, 510 mL/min/kg and 58.3 µg/mL (≈ 238 µM).
`Cc1ccc(S(=O)(=O)NC(=O)c2c(C)cc3n2CCn2c(C)ccc2-3)cc1` returned an aqueous solubility of 33.1 µg/mL (≈ 86.3 µM).
For `Cc1ccc(-c2nc3ccccc3[nH]2)cc1NS(=O)(=O)c1ccc(Cl)cc1`, the MDR1-MDCK efflux ratio was determined as 4.88 and the aqueous solubility was 0.28 µg/mL (≈ 0.704 µM).
Consider `COc1ccc(-c2ccc(Cn3nc(C)cc3C)cn2)cc1`, for which the MDR1-MDCK efflux ratio was 0.479; the intrinsic clearance, human liver microsomes came to 23.7 mL/min/kg; the intrinsic clearance, rat liver microsomes was found to be 255 mL/min/kg.
Compound `N#Cc1ccc(-c2cccc(CN)c2)s1` had an intrinsic clearance, human liver microsomes of 356 mL/min/kg and an intrinsic clearance, rat liver microsomes of 557 mL/min/kg.
As for `O=C(CCCC(=O)N1CCN(c2nsc3ccccc23)CC1)Nc1nccs1`, the MDR1-MDCK efflux ratio was found to be 11.2; the intrinsic clearance, human liver microsomes turned out to be 73.7 mL/min/kg; the intrinsic clearance, rat liver microsomes stood at 512 mL/min/kg.
On to `CN1CCN(C(=O)C2(NC(=O)c3ccc(C(F)(F)F)cc3)CCCC2)CC1`, for which the MDR1-MDCK efflux ratio was determined as 86; the intrinsic clearance, human liver microsomes was no more than 4.74 mL/min/kg; the intrinsic clearance, rat liver microsomes is no more than 10.7 mL/min/kg; the aqueous solubility was 76.1 µg/mL (≈ 199 µM).
For `Cc1cnn(CC(=O)NCCCn2cc(Cl)cn2)c1`, the MDR1-MDCK efflux ratio is 2.34; the intrinsic clearance, human liver microsomes is no more than 4.74 mL/min/kg; the intrinsic clearance, rat liver microsomes stood at 47.2 mL/min/kg.
`COc1cc2cc(N)c(C3CCN(C(=O)C(C)(C)C)CC3)nc2cc1OC`: the MDR1-MDCK efflux ratio worked out at 5.8; the intrinsic clearance, human liver microsomes was determined as 7.04 mL/min/kg; the intrinsic clearance, rat liver microsomes was found to be 43.5 mL/min/kg; the aqueous solubility was found to be 53 µg/mL (≈ 143 µM).
Consider `O=C(Cn1nc(Cc2ccccc2)c2ccccc2c1=O)NCc1ncc[nH]1`, for which the MDR1-MDCK efflux ratio was 92.6; the intrinsic clearance, human liver microsomes was 50.9 mL/min/kg; the intrinsic clearance, rat liver microsomes was found to be 3330 mL/min/kg.
Consider `Fc1cncc(-c2cnc(NCc3ccc(Cl)c(F)c3)nc2)c1`, for which the MDR1-MDCK efflux ratio was 0.339; the intrinsic clearance, human liver microsomes came to 14.9 mL/min/kg; the intrinsic clearance, rat liver microsomes turned out to be 104 mL/min/kg; the aqueous solubility was 3.2 µg/mL (≈ 9.62 µM).
For the compound `Cc1cc(C)n(-c2ccc(C(=O)NCc3cccnc3)cc2)n1`, the MDR1-MDCK efflux ratio worked out at 4.95; the intrinsic clearance, human liver microsomes is no more than 4.74 mL/min/kg; the intrinsic clearance, rat liver microsomes came to 94.4 mL/min/kg; the aqueous solubility was determined as 45.4 µg/mL (≈ 148 µM).
Consider `COCCNc1ncnc2ccsc12`, for which the MDR1-MDCK efflux ratio worked out at 0.711; the intrinsic clearance, human liver microsomes is no more than 4.74 mL/min/kg; the intrinsic clearance, rat liver microsomes turned out to be 22.9 mL/min/kg; the aqueous solubility was found to be 40.8 µg/mL (≈ 195 µM).
On to `Cc1c(CN2CCC(Nc3ncnc4sc(CC(F)(F)F)cc34)CC2)ccc2c1cc(C#N)n2Cc1cn[nH]c1`, for which the MDR1-MDCK efflux ratio was found to be 14.1; the intrinsic clearance, human liver microsomes is 136 mL/min/kg; the intrinsic clearance, rat liver microsomes came to 105 mL/min/kg; the aqueous solubility was 3.23 µg/mL (≈ 5.72 µM).
For `Cc1nonc1C(=O)NCCc1c[nH]c2cccc(C3(O)CCOCC3)c12`, the aqueous solubility is 61.2 µg/mL (≈ 165 µM).
As to `Nc1nc2ccccc2n1CCCc1ccccc1`, the MDR1-MDCK efflux ratio turned out to be 0.966; the intrinsic clearance, human liver microsomes is 13.4 mL/min/kg; the intrinsic clearance, rat liver microsomes was 463 mL/min/kg; the aqueous solubility was determined as 27.2 µg/mL (≈ 108 µM).
With `CN1CCC(CNc2ccc3ncc(-c4cccc(OC(F)(F)F)c4)n3n2)CC1`, the intrinsic clearance, human liver microsomes was 90.9 mL/min/kg and the intrinsic clearance, rat liver microsomes worked out at 365 mL/min/kg.
As to `CN(Cc1cccc(C#N)c1)Cc1ccccc1C#N`, the MDR1-MDCK efflux ratio came out at 0.591; the intrinsic clearance, human liver microsomes came to 283 mL/min/kg; the intrinsic clearance, rat liver microsomes came out at 4220 mL/min/kg; the aqueous solubility amounted to 29.4 µg/mL (≈ 112 µM).
As to `N#Cc1ccc(Cn2cncn2)c(F)c1`, the MDR1-MDCK efflux ratio was found to be 0.697; the intrinsic clearance, human liver microsomes is no more than 4.74 mL/min/kg; the intrinsic clearance, rat liver microsomes is no more than 10.7 mL/min/kg; the aqueous solubility amounted to 26.5 µg/mL (≈ 131 µM).
Take `CCCOc1ccccc1C(=O)N1CC(Oc2cccc(OC)c2)C1`: the MDR1-MDCK efflux ratio was 0.72; the intrinsic clearance, human liver microsomes is 92.8 mL/min/kg; the intrinsic clearance, rat liver microsomes turned out to be 1360 mL/min/kg; the aqueous solubility is 42.3 µg/mL (≈ 124 µM).
In the case of `Cc1noc(C2CCN(C(=O)C3(c4cccc(F)c4)CCC3)CC2)n1`, the MDR1-MDCK efflux ratio is 0.861; the intrinsic clearance, human liver microsomes was 54.1 mL/min/kg; the intrinsic clearance, rat liver microsomes is 2450 mL/min/kg; the aqueous solubility was found to be 76.3 µg/mL (≈ 222 µM).
